Measured values reported in patent US4883863A, “Tripeptide derivatives and antiplasmin agents containing the same” (Nitto Boseki Co., Ltd., priority 1987, dated 1989).
Where a name gives a salt, the structure may show the parent alone. Read-outs that look alike come from different tables or passages of the source. Where a SMILES comes first, the peptide text is derived from it. [ ]: non-standard residue; d: D form. The star is where a group is joined. Tos = Cc1ccc(S(=O)(=O)*)cc1

Assays:
plasmin [1] = molecular target: T1, plasmin (Homo sapiens, UniProt P00747); set-up: purchased Sankyo (Color Test α2 -D1 Kit); details: background, related art; cited from earlier work
Target sequence in this assay (P00747 581-810 limits assumed, species assumed): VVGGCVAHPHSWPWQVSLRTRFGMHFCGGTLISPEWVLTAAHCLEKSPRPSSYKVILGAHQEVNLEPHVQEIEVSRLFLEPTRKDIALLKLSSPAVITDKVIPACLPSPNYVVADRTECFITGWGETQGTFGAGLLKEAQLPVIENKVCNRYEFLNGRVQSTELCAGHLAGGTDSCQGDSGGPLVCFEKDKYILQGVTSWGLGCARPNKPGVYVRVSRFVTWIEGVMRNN
Target sequence in this assay (P00747 97-580 partner limits assumed, species assumed): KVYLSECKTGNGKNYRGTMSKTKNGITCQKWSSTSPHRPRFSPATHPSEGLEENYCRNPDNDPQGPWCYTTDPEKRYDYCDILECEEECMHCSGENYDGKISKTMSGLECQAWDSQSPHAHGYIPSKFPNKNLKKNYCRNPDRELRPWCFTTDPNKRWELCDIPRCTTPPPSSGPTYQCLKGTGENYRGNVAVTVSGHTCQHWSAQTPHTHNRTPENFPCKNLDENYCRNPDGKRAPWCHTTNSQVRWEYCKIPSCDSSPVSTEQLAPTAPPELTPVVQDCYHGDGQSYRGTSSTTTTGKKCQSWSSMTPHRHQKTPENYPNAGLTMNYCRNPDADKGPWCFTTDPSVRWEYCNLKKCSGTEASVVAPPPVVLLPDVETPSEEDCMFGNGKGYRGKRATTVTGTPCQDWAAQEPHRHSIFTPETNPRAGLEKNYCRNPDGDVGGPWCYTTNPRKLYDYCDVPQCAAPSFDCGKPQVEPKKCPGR

thrombin and trypsin = details: background, related art; cited from earlier work
human plasma kallikrein = molecular target: T2, human plasma kallikrein (Homo sapiens, UniProt P03952); assay: Kallikrein-inhibiting activity, synthetic substrate S-2302; format: biochemical; details: S-2302, pH 8.0, 37° C.
T2 construct: purchased Kabi Co., Ltd
Description: (§1) Synthetic substrates used for testing the inhibitory activity of the inhibitors on decomposition of substrates by the enzymes were as follows. For plasmin, PS-994 (H--D--Lys(Tos)--Phe--Lys--CHA·2HCl, mfd. by NITTO BOSEKI Co., Ltd.) was used; for thrombin and trypsin, PS-915 (H--D--Phe--Pro--Arg--CHA·2HCl, mfd. by NITTO BOSEKI Co., Ltd.); for Factor Xa, PS-2000 (Z--D--Lys--(HCO)--Gly--Arg--CHA·HCl, mfd. by NITTO BOSEKI Co., Ltd.); and for kallikrein, S-2302 (H--D--Pro--Phe--Arg--pNA, mfd., by Kabi Co., Ltd.).
(§2) As plasmin, standard plasmin of Sankyo Color Test α2 -D1 Kit was used in an amount of 0.3CU/ml. As thrombin, that of Sankyo Color Test ATIII kit was used in an amount of 1.2 NIHU/ml. As trypsin, that of cord 3703 of Worthington was used in an amount of 2 μg/ml. As human Factor Xa, that of Boehringer Manheim Co., Ltd. was used in an amount of 0.25 U/ml. As human plasma kallikrein, that of Kabi Co., Ltd. was used in an amount of 0.12 U/ml. As terminating color reagents, those for Sankyo Color Test Kit were used. The reactions were carried out at 37° C. unless otherwise specified.
Each of aqueous solutions (0.1 ml) of the inhibitors which solutions were various in their respective concentrations was added to 0.4 ml of a buffer solution (a 150 mM aqueous sodium chloride solution containing 50 mM Tris, pH 8.0), and the resulting mixture was heated for 5 minutes. Then, 0.1 ml of a kallikrein solution [containing 0.5% bovine serum albumin (No. A8022 available from Sigma Chemical Co.)] was added, followed by incubation for 5 minutes. Subsequently, a 10 mM S-2302 aqueous solution (0.1 ml) was added. The reaction was terminated by addition of a 20% aqueous acetic acid solution. Absorbance at 405 nm was measured and IC50 was measured in the manner described above.

human Factor Xa = molecular target: T3, human Factor Xa (Homo sapiens, UniProt P00742); assay: Factor Xa-inhibiting activity, synthetic substrate PS-2000; format: biochemical; details: PS-2000, pH 8.5, 37° C.
T3 construct: purchased Boehringer Manheim Co., Ltd
Description: as §1, §2
Each of aqueous solutions (1 ml) of the inhibitors which solutions were various in their respective concentrations was added to 0.3 ml of a buffer solution (a 150 mM aqueous sodium chloride solution containing 50 mM Tris, pH 8.5 ), and the resulting solution was heated for 5 minutes. Then, 0.1 ml of a Factor Xa solution (a 150 mM aqueous sodium chloride solution containing 50 mM Tris and 20 mM calcium chloride, pH 8.5) was added, followed by incubation for 5 minutes. Subsequently, a 5% polyvinyl pyrrobidone solution (0.1 ml) containing 10 mM PS-2000 was added, followed by incubation for 5 min. Thereafter, 2 ml of terminating color reagent was added. After standing for 10 minutes, absorbance at 700 nm was measured and IC50 was determined in the manner described above.

plasmin [2] = molecular target: T1, plasmin; assay: Plasmin-inhibiting activity, synthetic substrate PS-994; format: biochemical; set-up: purchased Sankyo (Color Test α2 -D1 Kit); details: PS-994, pH 7.8, 37° C.
Description: as §1, §2
Target sequence in this assay (P00747 581-810 limits assumed, species assumed): as the sequence (P00747 581-810 limits assumed, species assumed) above
Target sequence in this assay (P00747 97-580 partner limits assumed, species assumed): as the sequence (P00747 97-580 partner limits assumed, species assumed) above
Each of aqueous solutions (0.1 ml) of the inhibitors which solutions were various in their respective concentrations was added to 0.4 ml of a buffer solution (a 150 mM aqueous sodium chloride solution containing 100 mM Tris, pH 7.8), and the resulting solution was heated for 5 minutes. To this solution was added 0.2 ml of plasmin solution, followed by incubation for 5 minutes, and then 0.1 ml of a PS-994 solution (10 mM) was added, and then incubated for 5 minutes. After completion of the reaction, 2.0 ml of terminating color reagent was added, and after standing for 10 minutes, absorbance at 700 nm was measured. A concentration of the inhibitor in the reaction system at which the absorbance was one-half that obtained in the absence of the inhibitor was determined as IC50.

thrombin = molecular target: T4, thrombin (Homo sapiens, UniProt P00734); assay: Thrombin-inhibiting activity, synthetic substrate PS-915; format: biochemical; details: PS-915, pH 8.5, 37° C.
T4 construct: purchased Sankyo (Color Test ATIII kit)
Description: as §1, §2
Each of aqueous solutions (0.1 ml) of the inhibitors which solutions were various in their respective concentrations was added to 0.4 ml of a buffer solution (a 150 mM aqueous sodium chloride solution containing 150 mM Tris, pH 8.5), and the resulting solution was heated for 5 minutes. To this solution was added 0.2 ml of thrombin solution, followed by incubation for 5 minutes. Then, 0.1 ml of a PS-915 solution (10 mM) was added, followed by incubation for 5 minutes. Thereafter, 2 ml of terminating color reagent was added. After standing for 10 minutes, absorbance at 700 nm was measured, and IC50 was determined in the manner described above.

trypsin = molecular target: T5, trypsin (Bos taurus, UniProt P00760); assay: Trypsin-inhibiting activity, synthetic substrate PS-915; format: biochemical; details: PS-915, pH 8.0, 37° C.
T5 construct: purchased Worthington 3703
T5 sequence (P00760 24-246): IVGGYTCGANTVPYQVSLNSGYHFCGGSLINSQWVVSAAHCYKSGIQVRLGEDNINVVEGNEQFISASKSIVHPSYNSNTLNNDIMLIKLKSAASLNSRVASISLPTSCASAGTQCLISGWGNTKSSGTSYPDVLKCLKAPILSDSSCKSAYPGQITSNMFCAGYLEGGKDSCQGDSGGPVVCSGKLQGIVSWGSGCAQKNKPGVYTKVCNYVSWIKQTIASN
Description: as §1, §2
Each of aqueous solutions (0.1 ml) of the inhibitors which solutions were various in their respective concentrations was added to 0.5 ml of a buffer solution (a 150 mM aqueous sodium chloride solution containing 150 mM Tris, pH 8.0), and the resulting solution was heated for 5 minutes. Then, 0.1 ml of a trypsin solution was added, followed by incubation for 5 minutes. Subsequently, 0.1 ml of a PS-915 solution (10 mM) was added, followed by incubation for 5 minutes. Thereafter, 2 ml of terminating color reagent [containing […] of soybean trypsin inhibitor (No. T-9003, available from Sigma Chemical Co.)] was added. After standing for 10 minutes, absorbance at 700 nm was measured and IC50 was determined in the manner described above.

plasmin [3] = molecular target: T1, plasmin; assay: Inhibitory activity on fibrin decomposition by plasmin (natural substrate); format: biochemical; set-up: Standard human serum (0.1 ml); from tissue; details: concentration doubling time for complete dissolution, 25° C.
Protocol: The determination was carried out by the method of Okamoto et al. (see Keio Journal of Medicine, vol. 11, p. 105 (1962).
Standard human serum (0.1 ml), 0.4 ml of each of 1/20 M potassium phosphate sodium physiological salt buffer solutions (pH 7.4) containing various concentrations of each inhibitor, and 0.1 ml of a solution of streptokinase in physiological saline (1000 U/ml) were stirred and then cooled at 0° C. for 10 minutes. Thereto was added 0.05 ml of a solution of thrombin in physiological saline (100 NIHU/ml, mfd. by Parke Davis Co. Ltd.) at 0° C. After standing for 1 minute, 0.3 ml of a 0.33% solution of bovine fibrinogen (F-4753, available from Sigma Chemical Co.) in physiological saline was added, and the resulting mixture was allowed to stand at 25° C. The solubility was measured every minute by the standard of judgement of Nakamura (see Allergy, vol. 5, p. 1 (1956)) and the time required for complete dissolution was determined. A concentration of the inhibitor at which said time is twice that required in the absence of the inhibitor was determined as IC50.
Target sequence in this assay (P00747 581-810 limits assumed): as the sequence (P00747 581-810 limits assumed, species assumed) above
Target sequence in this assay (P00747 97-580 partner limits assumed): as the sequence (P00747 97-580 partner limits assumed, species assumed) above

plasmin [4] = molecular target: T1, plasmin; set-up: purchased Sankyo (Color Test α2 -D1 Kit); details: cited from earlier work
Target sequence in this assay (P00747 581-810 limits assumed, species assumed): as the sequence (P00747 581-810 limits assumed, species assumed) above
Target sequence in this assay (P00747 97-580 partner limits assumed, species assumed): as the sequence (P00747 97-580 partner limits assumed, species assumed) above

plasmin [5] = molecular target: T1, plasmin; set-up: purchased Sankyo (Color Test α2 -D1 Kit); details: cited from earlier work; remark: listed apart in the source
Target sequence in this assay (P00747 581-810 limits assumed, species assumed): as the sequence (P00747 581-810 limits assumed, species assumed) above
Target sequence in this assay (P00747 97-580 partner limits assumed, species assumed): as the sequence (P00747 97-580 partner limits assumed, species assumed) above

T2 sequence (P03952 391-638 limits assumed): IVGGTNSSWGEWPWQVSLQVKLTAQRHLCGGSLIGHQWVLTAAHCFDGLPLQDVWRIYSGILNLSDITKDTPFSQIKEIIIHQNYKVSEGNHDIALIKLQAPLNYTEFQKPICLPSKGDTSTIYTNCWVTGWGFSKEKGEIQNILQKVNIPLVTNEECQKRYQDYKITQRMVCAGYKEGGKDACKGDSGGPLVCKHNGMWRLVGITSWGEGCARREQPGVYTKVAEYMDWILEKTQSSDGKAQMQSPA
T2 sequence (P03952 20-390 partner limits assumed): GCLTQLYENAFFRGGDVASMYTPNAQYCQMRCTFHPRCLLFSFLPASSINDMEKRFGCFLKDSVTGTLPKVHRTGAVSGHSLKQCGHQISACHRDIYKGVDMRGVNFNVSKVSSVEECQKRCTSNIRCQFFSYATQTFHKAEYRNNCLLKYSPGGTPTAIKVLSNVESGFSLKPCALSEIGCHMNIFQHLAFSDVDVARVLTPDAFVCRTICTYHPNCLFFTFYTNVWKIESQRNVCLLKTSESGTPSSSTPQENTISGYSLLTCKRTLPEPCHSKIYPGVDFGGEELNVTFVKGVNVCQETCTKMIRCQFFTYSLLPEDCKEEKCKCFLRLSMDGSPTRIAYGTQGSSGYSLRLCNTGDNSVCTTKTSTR
T3 sequence (P00742 235-488 limits assumed): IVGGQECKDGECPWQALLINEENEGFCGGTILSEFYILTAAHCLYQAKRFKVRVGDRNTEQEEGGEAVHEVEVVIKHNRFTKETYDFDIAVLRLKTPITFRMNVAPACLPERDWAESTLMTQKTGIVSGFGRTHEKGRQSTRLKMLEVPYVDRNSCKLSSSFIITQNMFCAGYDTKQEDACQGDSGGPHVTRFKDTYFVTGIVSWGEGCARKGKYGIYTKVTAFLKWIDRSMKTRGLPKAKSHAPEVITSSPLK
T3 sequence (P00742 41-179 partner limits assumed): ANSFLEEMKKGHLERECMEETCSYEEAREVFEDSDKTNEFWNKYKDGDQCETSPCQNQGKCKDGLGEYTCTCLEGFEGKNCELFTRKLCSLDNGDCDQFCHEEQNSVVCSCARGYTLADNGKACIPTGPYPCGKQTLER

Molecule	antiplasmin activity (plasmin [1])	inhibition of proteases other than plasmin, for example, thrombin and trypsin (thrombin and trypsin)	IC50 (human plasma kallikrein; Table 4) [µM]	IC50 (human Factor Xa; Table 4) [µM]	IC50 (plasmin [2]; Table 4) [µM]	IC50 (thrombin; Table 4) [µM]	IC50 (trypsin; Table 4) [µM]	IC50 (plasmin [3]; Table 4) [µM]	also measured
CN(C)C(=O)COC(=O)Cc1ccc(OC(=O)c2ccc(NC(=N)N)cc2)cc1 [Camostat]	have antiplamin activity	strongly inhibit	–	–	–	–	–	–	–
Cc1ccc(S(=O)(=O)NCCCC[C@@H](NC(=O)OCC(C)C)C(=O)N[C@@H](Cc2ccccc2)C(=O)N[C@H](C=O)CCCCN)cc1 [Compound 1, N-α-Isobutoxycarbonyl-N-ε-(p-tosyl)-D-lysyl-L-phenylalanyl-L-lysinal hydrochloride]	–	–	0.18	8.1	0.034	> 1000	2.8	0.23	–
CC(=O)N[C@H](CCCCNS(=O)(=O)c1ccc(C)cc1)C(=O)N[C@@H](Cc1ccccc1)C(=O)N[C@H](C=O)CCCCN [Compound 3, N-α-Acetyl-N-ε-(p-tosyl)-D-lysyl-L-phenylalanyl-L-lysinal hydrochloride] (Ac-[dK](Tos)-Phe-Lys-aldehyde)	–	–	4.9	200	0.66	> 1000	27	0.37	–
Cc1ccc(S(=O)(=O)NCCCC[C@@H](NS(=O)(=O)c2ccc(C)cc2)C(=O)N[C@@H](Cc2ccccc2)C(=O)N[C@H](C=O)CCCCN)cc1 [Compound 5, N-α-N-ε-Di(p-tosyl)-D-lysyl-L-phenylalanyl-L-lysinal hydrochloride] (Tos-[dK](Tos)-Phe-Lys-aldehyde)	–	–	0.54	16	0.032	> 1000	3.2	0.78	–
Cc1ccc(S(=O)(=O)NCCCC[C@@H](N)C(=O)N[C@@H](Cc2ccccc2)C(=O)N[C@H](C=O)CCCCN)cc1 [Compound 7, N-ε-(p-Tosyl)-D-lysyl-L-phenylalanyl-L-lysinal dihydrochloride] (H-[dK](Tos)-Phe-Lys-aldehyde)	–	–	0.96	160	0.17	> 1000	18	0.27	–
Cc1ccc(S(=O)(=O)NCCCC[C@@H](NC(=O)OCC(C)C)C(=O)N[C@@H](Cc2ccccc2)C(=O)N[C@@H](CCCCN)C(=O)CCl)cc1 [Compound 13, N-α-Isobutoxycarbonyl-N-ε-(p-tosyl)-D-lysyl-L-phenylalanyl-L-lysine chloromethyl ketone hydrochloride]	–	–	0.11	2.9	0.031	2.5	0.68	0.44	–
CC(=O)N[C@@H](CC(C)C)C(=O)N[C@@H](CC(C)C)C(=O)N[C@H](C=O)CCCNC(=N)N [Compound A4, AcLeuLeuArgH.1/2H2 SO4.H2 O (leupeptin), reference compound]	–	–	–	–	–	–	–	–	IC50 (human plasma kallikrein; Table 3): 130 µM; IC50 (human Factor Xa; Table 3): 14 µM; IC50 (plasmin [2]; Table 3): 20 µM; IC50 (thrombin; Table 3): 590 µM; IC50 (trypsin; Table 3): 0.78 µM; IC50 (plasmin [3]; Table 3): 5.5 µM
CCOC(=O)c1ccc(OC(=O)CCCCCN=C(N)N)cc1.CS(=O)(=O)O [FOY]	have antiplamin activity	strongly inhibit	–	–	–	–	–	–	–
N=C(N)Nc1ccc(C(=O)Oc2ccc3cc(C(=N)N)ccc3c2)cc1 [Nafamstat]	have antiplamin activity	strongly inhibit	–	–	–	–	–	–	–
CC(=O)N[C@@H](CC(C)C)C(=O)N[C@@H](CC(C)C)C(=O)N[C@H](C=O)CCCCN [acetyl-L-leucyl-L-leucyl-lysinal] (Ac-Leu-Leu-Lys-aldehyde)	has antiplasmin activity	–	–	–	–	–	–	–	–
NC[C@H]1CC[C@H](C(=O)O)CC1 [t-AMCHA, trans-aminoethylcyclohexanecarboxylic acid]	–	–	–	–	–	–	–	–	ability to inhibit decomposition of other substrates by plasmin, e.g. fibrinogen (plasmin [4]): substantially no ability to inhibit; inhibition of fibrinolysis by plasmin (plasmin [5]): inhibit only fibrinolysis by plasmin
NCCCCCC(=O)O [ε-Aminocaproic acid]	–	–	–	–	–	–	–	–	ability to inhibit decomposition of other substrates by plasmin, e.g. fibrinogen (plasmin [4]; background, related art): substantially no ability to inhibit; inhibition of fibrinolysis by plasmin (plasmin [5]; background, related art): inhibit only fibrinolysis by plasmin
aprotinin	have antiplamin activity	strongly inhibit	–	–	–	–	–	–	–
